From patent publication US20230383264A1, “FULLY FUNCTIONAL CONTRACTILE GASTROINTESTINAL ORGANOID SYSTEM, GENERATED FROM HUMAN-INDUCED PLURIPOTENT STEM CELLS TO DEVELOP A HIGH THROUGHPUT SYSTEM FOR DETECTING EXISTING AND NEWLY-EMERGING PATHOGENS, DRUGS, TOXICITY AND THEREOF” (NeyroblastGX LLC,, priority 2022, published 2023)
Several values for one entry are separate records, joined by “and”; a condition that tells them apart may be missing. Equal values may be shown once. Entries after “also recorded” stand apart in the source; their conditions may differ.

Key:
Assay type in all cases: cell-based, human
[1] = test system: GIO (gastrointestinal organoids from HiPSCs); test: 10-plex proinflammatory cytokine array of LPS-treated GIO media
Experimental: 10-plex proinflammatory cytokine (ProC) measurement of LPS and pathogen/non-pathogenic bacterial treated GIO media (supernatant) was assayed using the Luminex multiplexing cytokine suspension array technology (Immune Monitoring Core Facility, USC, CA). Measurements of IL-2, IL-6, IL-8, IL-10, IL-13, TNF-α, INF-γ, MIP-1α and MIP-1β in the supernatant were analyzed using a MilliPlex MAP human cytokine/chemokine magnetic bead panel (MilliporeSigma, St. Louis, MO). Plates were read on a Bio-Plex 200 System using Bio-Plex Manager software version 6.0 (BioRad, Hercules, CA). Five (5) parameter logistic regression algorithms were used to determine cytokine concentrations based on provided cytokine standards and averages from triplicate-wells. Each ProC standard was measured using six known concentrations (10.0 ng, 2.0 ng, 0.4 ng, 0.08 ng, 0.016 ng, 0.0032 ng), and most regression values reached >0.99. Limit of detection: The lower limit of quantitation (LLOQ) for each ProCs are IL-13 (0.257 pg/mL), IL-1β (0.485 pg/mL), IL-2 (0.157 pg/mL), IL-8 (0.299 pg/mL), TNF-α (0.382 pg/mL), IL-6 (0.179 pg/mL), INF-γ (0.562 pg/mL), IL-10 (1.510 pg/mL), MIP-1α (0.273 pg/mL), MIP-1β ([…]). We quantified the UT-GIO, LPS-treated Sus-GIO, and Cryo-GIO with or without pathogenic and non-pathogenic bacteria. After analyzing ProC in each treatment, we conducted statistical analyses to determine the significance of the ProC status of pathogenic versus non-pathogenic bacteria in LPS-treated (Sus-GIO) and untreated GIO (UT-GIO) using GraphPad Prism (San Diego, CA). We have performed two-way ANOVA with Tukey's multiple comparisons using GraphPad Prism. *p<0.05, **p<0.01, ***p<0.001, ****p<0.0001 denotes significance.

[2] = test system: GIO (gastrointestinal organoids from HiPSCs); test: Immunocytochemistry of Zo1 (TJP1) and Ki67 in LPS-treated GIO
Excerpt: Immunocytochemistry (ICC) and flow cytometry is a common cellular protein or antigen-detecting and visualization techniques that can recognize the target of interest or specific marker expression in cells via imaging and a series of flow histograms. The antibody is directly or indirectly linked to a reporter, such as a fluorophore or an enzyme. We performed ICC and flow cytometry as a previously established method developed by the PI.^35, 36 Briefly, for flow cytometry, cells were collected and dissociated with trypsin into a single cell and then blocked with 2% mouse serum and staining with conjugated anti-CDX2 antibody (BD Biosciences) as previously established method^11 and run to NovoCyte Flow Cytometer (Agilent Technologies, Santa Clara, CA). We have verified endodermal marker verification using CDX2 expression using flow cytometry. But for ICC, we have grown GIOs on coverslips coated or directly on the 24-well plates. Then cells were washed with PBS (phosphate-buffered saline) and fixed with 4% paraformaldehyde (PFA, Thermo Scientific). After additional washes in PBS, the cells were permeabilized in 0.1% Triton X-100 (Sigma-Aldrich), followed by blocking with 5% BSA (bovine serum albumin) in PBS containing 10% normal goat serum (NGS, Thermofisher Scientific). Next, the cells were incubated overnight with primary antibodies diluted in a blocking solution at […] with an appropriate dilution indicated by the manufacturer. The next day, the cells were washed three times with washing buffer (1×PBS containing 0.05% Tween 20 and 1% NGS). Then cells were incubated for 2 h at 25° C. with a fluorescent secondary antibody (Life Technologies). […] NGL lab-produced GIO followed a similar developmental pathway in the fetus or fetal mouse^37, including smooth muscle contractile ability determined by smoothA and β-actin,^14 GFAP, and MAP2.

[3] = test system: GIO (gastrointestinal organoids from HiPSCs); test: MTT cell viability assay of Fresh-GIO and Cryo-GIO; conditions: LPS 96 h
Experimental: We determined GIO viability after the freeze-thaw cycle using a colorimetric assay to evaluate cell metabolic activity with an MTT [3-(4,5-dimethylthiazol-2-yl)-2,5-diphenyltetrazolium bromide] assay, following the manufacturer's instructions for the assay (MilliporeSigma). To perform the reported established MTT assay^40, we grew GIO in 24-well plates and then treated them with or without LPS for 96 h to observe viability and stability. We added lmg/mL of MTT reagent to each −well containing GIO, followed by the 2 h incubation at 37° C. Further, GIO was washed with sterile PBS, followed by the addition of dimethyl sulfoxide (DMSO) in each—well and mixed. After the 10 min incubation, DMSO was absorbed the MTT and run for a plate reader (SpectraMax iD3 Plate Reader, Molecular Devices, San Jose, CA) with the optical absorption density (OD) of 570 nm to determine the amount of MTT binding in the viable cell. This method determined our GIO's viability and stability after the freeze-thaw cycle with or without inflectional susceptible LPS treatment. We calculated the amount of MTT in each well using the following formula: […]

[4] = test system: microbiota-treated GIO bacterial community; test: Shotgun metagenomics of fecal microbiota-treated GIO; conditions: LPS-treated GIO vs GIO without LPS, with fecal microbiota
Experimental: Our UT-GIO and Sus-GIO were treated with fecal microbiota to generate GIO with a complete gut-microbiome system observed in vivo.^38,39 In this context, we first prepared fecal microbiota, purchased from Discovery Life Sciences (DLS). DLS obtains fecal microbiota samples according to their protocol approved by their internal review board (IRB). Then, 100 mg of fecal microbiota was dissolved with sterile PBS and filtered by a 70 μm cell strainer to remove aggregates. Filtered fecal microbiota was further diluted 1:100 using an intestinal expansion medium without penicillin/streptomycin. […] Microbiota-treated GIO with or without LPS and pathogenic/nonpathogenic bacterial culture media sample was analyzed by University of California, San Diego (UCSD) Microbiome Core to obtain metagenomic profiles.
In total, pathogenic and non-pathogenic UT (untreated) and Sus (susceptible)-GIO samples were processed for total DNA extraction and metagenomic library preparation and sequencing. […] Sequencing data were processed first by performing adapter trimming and human-read filtering via pairwise alignments using minimap2. All reads were uploaded into qiita, and taxonomy was assigned using the Web of Life toolkit (WoLtka) implementation in Qiime2 via QIITA (read more here: https://github.com/qiyunzhu/woltka). […]

## lipopolysaccharide [LPS]
[1]; LPS 100 μg/mL, 48 h only
  IL-10, IL-1β and IFNγ secretion: upregulated only in 48 h time points; also recorded: upregulated when treated with only 100 μg/mL LPS for 48 h
[1]; LPS 10-100 μg/mL, 24 h and 48 h, dose and time-dependent
  IL-2, IL-6, IL-8, TNF-α, MIP-1α and MIP-1β secretion: upregulated
[1]; any time point or LPS concentration
  IL-13 secretion: unable to detect
[2]; 24-48 h
  Effect on Zo1 immunostaining at earlier time point: could not see any effect on Zo1
[2]; LPS 100 μg/ml, 96 h
  Ki67 (intestinal crypt cell type) expression: decreased
[2]; LPS 50-100 μg/ml, 96 h
  Effect on TJP1 (Zo1) expression: affects GIO TJP1; also recorded: disrupts endothelial tight junction protein
[3]
  Loss of cell viability (MTT): 15-20% and ~20%
[4]
  Change of bacterial community (Bacteroidales bacterium M2): causes a bloom of an unknown Bacteroides sp; also recorded: caused a bloom of unknown Bacteroides sp
